Format in all cases: biochemical
The target in assay [1] is T1, TAF1L(h) (Homo sapiens, UniProt Q8IZX4).
T1 construct: purchased Eurofins (KinaseProfiler)
Briefly: radiometric kinase assay (KinaseProfiler, Eurofins), TAF1L. As to conditions: in vitro radiometric kinase assay, tested at 1 nM to 10 000 nM, no pre-incubation; read-out: inhibitory activities (IC50 values) TAF1L. The method, then: (§1) The compounds were profiled in the radiometric assays (KinaseProfiler, Eurofins).
(§2) Briefly, kinases were diluted in the buffer shown below prior to addition to the reaction mix: • CDKL3, TAF1L: 20 mM Tris/HCl pH 8.5, 0.2 mM EDTA, 0.1% β-mercaptoethanol, 0.01% Brij-35, 5% glycerol, 1 mg/ml BSA; • Haspin: 15 mM MOPS, 0.75 mM EDTA, 0.0075% Brij-35, 3.75% Glycerol, 150 mM NaCl, 0.1% β-mercaptoethanol, 1 mg/mLBSA; • CDKL4, CLK2, PIM1, TRB2: […], 1 mM EDTA, 0.01% Brij-35, 5% Glycerol, 0.1% β-mercaptoethanol, 1 mg/mL BSA.
(§3) All compounds were prepared to 50x final assay concentration in 100% DMSO. This working stock of the compound was added to the assay well as the first component in the reaction, followed by the remaining components as detailed in the general assay protocols below. There was no pre-incubation step between the compound and the kinase prior to initiation of the reaction.
TAF1L(h) was incubated with 20 mM Tris/HCl pH 8.5, 0.2 mM EDTA, 250 µM RRRFRPASPLRGPPK (SEQ ID NO. 1), 10 mM magnesium acetate and γ-^33P-ATP (specific activity and concentration as required). The reaction was initiated by the addition of the Mg/ATP mix. After incubation for 120 minutes at room temperature, the reaction was stopped by the addition of phosphoric acid to a concentration of 0.5%. An aliquot of the stopped reaction was spotted onto a filter and washed four times for 4 minutes in 0.425% phosphoric acid and once in methanol prior to drying and scintillation counting.
(§4) Kinase activity data were expressed as the percent remaining kinase activity in tested samples compared to the vehicle (DMSO) reactions. The compounds were tested at the following concentrations: 1 nM, 3 nM, 10 nM, 30 nM, 100 nM, 300 nM, 1000 nM, 3000 nM, and 10 000 nM; IC50 values and curve fits were then obtained.

Assay [2] addresses T2, CDKL3(h) (Homo sapiens, UniProt Q8IVW4).
T2 construct: purchased Eurofins (KinaseProfiler)
The assay can be described thus: radiometric kinase assay (KinaseProfiler, Eurofins), CDKL3. As to conditions: in vitro radiometric kinase assay, tested at 1 nM to 10 000 nM, no pre-incubation; read-out: inhibitory activities (IC50 values) CDKL3. The protocol: as §1, §2, §3
CDKL3(h) was incubated with 8 mM MOPS pH 7.0, 0.2 mM EDTA, 250 µM RRRFRPASPLRGPPK (SEQ ID NO. 1), 10 mM magnesium acetate and γ-^33P-ATP (specific activity and concentration as required). The reaction was initiated by the addition of the Mg/ATP mix. After incubation for 120 minutes at room temperature, the reaction was stopped by the addition of phosphoric acid to a concentration of 0.5%. An aliquot of the stopped reaction was spotted onto a filter and washed four times for 4 minutes in 0.425% phosphoric acid and once in methanol prior to drying and scintillation counting.
as §4

Assay [3] addresses T3, TRB2(h) (Homo sapiens, UniProt Q92519).
T3 construct: purchased Eurofins (KinaseProfiler)
T3 sequence (Q92519 1-343): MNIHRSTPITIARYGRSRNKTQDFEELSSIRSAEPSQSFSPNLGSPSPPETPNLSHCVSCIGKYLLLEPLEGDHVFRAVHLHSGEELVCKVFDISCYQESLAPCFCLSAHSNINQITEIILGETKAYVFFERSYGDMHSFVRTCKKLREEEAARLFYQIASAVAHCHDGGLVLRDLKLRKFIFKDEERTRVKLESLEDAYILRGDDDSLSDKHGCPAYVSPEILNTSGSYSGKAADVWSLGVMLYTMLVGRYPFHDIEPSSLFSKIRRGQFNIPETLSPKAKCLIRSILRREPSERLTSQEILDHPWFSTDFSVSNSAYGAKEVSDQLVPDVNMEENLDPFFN
The assay can be described thus: radiometric kinase assay (KinaseProfiler, Eurofins), TRB2. As to conditions: in vitro radiometric kinase assay, tested at 1 nM to 10 000 nM, no pre-incubation; read-out: inhibitory activities (IC50 values) TRB2. The method, then: as §1, §2, §3
TRB2(h) was incubated with 8 mM MOPS pH 7.0, 0.2 mM EDTA, 250 µM RRRFRPASPLRGPPK (SEQ ID NO. 1), 10 mM magnesium acetate and γ-^33P-ATP (specific activity and concentration as required). The reaction was initiated by the addition of the Mg/ATP mix. After incubation for 120 minutes at room temperature, the reaction was stopped by the addition of phosphoric acid to a concentration of 0.5%. An aliquot of the stopped reaction was spotted onto a filter and washed four times for 4 minutes in 0.425% phosphoric acid and once in methanol prior to drying and scintillation counting.
as §4

The target of assay [4] is T4, DYRK2 (h) (Homo sapiens, UniProt Q92630).
T4 construct: purchased Eurofins (KinaseProfiler)
T4 sequence (Q92630 1-601): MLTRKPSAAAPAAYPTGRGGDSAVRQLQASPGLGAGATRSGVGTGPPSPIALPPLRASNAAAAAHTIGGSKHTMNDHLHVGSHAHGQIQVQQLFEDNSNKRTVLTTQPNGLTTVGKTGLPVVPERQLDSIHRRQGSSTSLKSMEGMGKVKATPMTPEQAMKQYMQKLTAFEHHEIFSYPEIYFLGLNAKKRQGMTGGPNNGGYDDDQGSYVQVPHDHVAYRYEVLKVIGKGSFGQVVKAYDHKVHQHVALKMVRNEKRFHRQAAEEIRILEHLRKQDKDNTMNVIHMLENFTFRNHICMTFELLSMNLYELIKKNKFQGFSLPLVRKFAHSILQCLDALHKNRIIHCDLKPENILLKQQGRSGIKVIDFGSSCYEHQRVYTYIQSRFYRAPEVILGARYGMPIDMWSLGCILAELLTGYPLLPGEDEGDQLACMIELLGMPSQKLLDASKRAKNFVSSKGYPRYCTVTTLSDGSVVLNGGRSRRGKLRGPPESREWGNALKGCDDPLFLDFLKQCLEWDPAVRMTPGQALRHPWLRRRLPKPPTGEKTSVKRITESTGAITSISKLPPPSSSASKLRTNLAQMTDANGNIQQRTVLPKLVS
The assay can be described thus: radiometric kinase assay (KinaseProfiler, Eurofins), DYRK2. Conditions: in vitro radiometric kinase assay, tested at 1 nM to 10 000 nM, no pre-incubation; read-out: inhibitory activities (IC50 values) DYRK2. The method, then:
as §1, §3
DYRK2 (h) was incubated with 8 mM MOPS pH 7.0, 0.2 mM EDTA, 2 mg/mL casein, 10 mM magnesium acetate and γ-^33P-ATP (specific activity and concentration as required). The reaction was initiated by the addition of the Mg/ATP mix. After incubation for 40 minutes at room temperature, the reaction was stopped by the addition of phosphoric acid to a concentration of 0.5%. An aliquot of the reaction was then spotted onto a filter and washed four times for 4 minutes in 0.425% phosphoric acid and once in methanol prior to drying and scintillation counting.
as §4

Structures are written as SMILES.

T2 sequence (Q8IVW4 whole entry): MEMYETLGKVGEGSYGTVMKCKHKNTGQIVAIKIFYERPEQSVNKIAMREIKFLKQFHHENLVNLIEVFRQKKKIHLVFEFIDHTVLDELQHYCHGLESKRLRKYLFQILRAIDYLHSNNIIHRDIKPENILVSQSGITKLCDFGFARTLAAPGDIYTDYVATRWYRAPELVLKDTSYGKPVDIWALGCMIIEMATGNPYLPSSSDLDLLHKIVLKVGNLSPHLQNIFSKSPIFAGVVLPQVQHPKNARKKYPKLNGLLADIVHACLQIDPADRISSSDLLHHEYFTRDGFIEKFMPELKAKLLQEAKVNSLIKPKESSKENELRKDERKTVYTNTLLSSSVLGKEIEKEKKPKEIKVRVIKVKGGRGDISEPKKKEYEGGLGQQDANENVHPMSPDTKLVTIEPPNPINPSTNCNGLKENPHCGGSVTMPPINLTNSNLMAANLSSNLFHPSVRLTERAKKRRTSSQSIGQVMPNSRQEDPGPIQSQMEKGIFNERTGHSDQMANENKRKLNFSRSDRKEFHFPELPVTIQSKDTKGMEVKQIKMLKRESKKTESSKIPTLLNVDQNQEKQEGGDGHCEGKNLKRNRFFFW
T1 sequence (Q8IZX4 whole entry): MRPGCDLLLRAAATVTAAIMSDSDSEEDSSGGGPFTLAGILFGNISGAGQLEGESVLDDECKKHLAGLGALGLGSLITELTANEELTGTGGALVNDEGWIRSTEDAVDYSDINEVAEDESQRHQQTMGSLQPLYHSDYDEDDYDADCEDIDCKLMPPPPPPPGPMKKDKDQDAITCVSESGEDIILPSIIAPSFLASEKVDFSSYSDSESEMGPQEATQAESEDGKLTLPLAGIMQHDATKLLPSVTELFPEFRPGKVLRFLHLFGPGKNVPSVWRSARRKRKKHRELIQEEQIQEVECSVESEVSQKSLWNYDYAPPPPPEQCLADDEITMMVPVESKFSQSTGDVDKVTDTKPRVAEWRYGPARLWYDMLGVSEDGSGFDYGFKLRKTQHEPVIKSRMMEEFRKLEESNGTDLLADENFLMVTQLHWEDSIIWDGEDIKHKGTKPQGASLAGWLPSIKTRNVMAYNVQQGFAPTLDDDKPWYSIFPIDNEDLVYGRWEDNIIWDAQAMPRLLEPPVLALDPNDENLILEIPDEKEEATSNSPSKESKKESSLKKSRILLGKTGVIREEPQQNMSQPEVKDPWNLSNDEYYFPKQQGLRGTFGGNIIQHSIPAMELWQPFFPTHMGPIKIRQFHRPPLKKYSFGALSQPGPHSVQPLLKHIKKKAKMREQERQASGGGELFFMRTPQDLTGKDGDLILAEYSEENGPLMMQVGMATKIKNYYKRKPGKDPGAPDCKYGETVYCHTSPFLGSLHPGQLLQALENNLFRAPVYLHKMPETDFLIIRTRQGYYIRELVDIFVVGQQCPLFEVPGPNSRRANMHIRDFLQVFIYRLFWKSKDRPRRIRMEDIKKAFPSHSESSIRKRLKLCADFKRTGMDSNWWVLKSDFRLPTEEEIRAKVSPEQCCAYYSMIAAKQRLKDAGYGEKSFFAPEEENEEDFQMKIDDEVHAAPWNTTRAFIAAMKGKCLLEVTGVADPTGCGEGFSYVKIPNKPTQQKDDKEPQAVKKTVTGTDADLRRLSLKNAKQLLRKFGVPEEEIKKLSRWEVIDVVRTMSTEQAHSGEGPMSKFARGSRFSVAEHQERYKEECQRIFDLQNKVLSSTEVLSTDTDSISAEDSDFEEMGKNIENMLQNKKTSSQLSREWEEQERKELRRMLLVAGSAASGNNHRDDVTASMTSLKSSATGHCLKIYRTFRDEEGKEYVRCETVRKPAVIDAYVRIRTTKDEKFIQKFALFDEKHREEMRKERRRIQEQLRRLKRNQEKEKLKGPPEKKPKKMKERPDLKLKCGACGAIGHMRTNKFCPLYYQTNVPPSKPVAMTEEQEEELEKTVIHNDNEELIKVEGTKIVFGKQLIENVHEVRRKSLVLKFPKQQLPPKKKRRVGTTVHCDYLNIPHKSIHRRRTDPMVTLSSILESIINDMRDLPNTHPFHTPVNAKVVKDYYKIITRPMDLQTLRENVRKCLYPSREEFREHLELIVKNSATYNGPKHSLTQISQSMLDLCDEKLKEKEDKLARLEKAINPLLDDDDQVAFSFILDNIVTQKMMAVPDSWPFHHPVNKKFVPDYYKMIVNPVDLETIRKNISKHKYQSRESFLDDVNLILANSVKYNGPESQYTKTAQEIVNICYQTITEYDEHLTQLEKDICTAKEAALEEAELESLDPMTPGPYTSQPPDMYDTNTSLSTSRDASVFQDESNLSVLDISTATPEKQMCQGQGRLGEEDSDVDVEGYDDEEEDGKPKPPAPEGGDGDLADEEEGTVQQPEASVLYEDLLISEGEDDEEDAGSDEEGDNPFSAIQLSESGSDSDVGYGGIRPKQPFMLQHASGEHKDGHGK

With `Cn1cc(-c2ccc3scc(-c4cnn(C)c4)c3n2)cn1` [Preparative Example 63, 3,5-bis(1-methyl-1H-pyrazol-4-yl)thieno[3,2-b]pyridine], the IC50 in assay [1] was in the range of 100 to 499 nM; in assay [2], 100 to 499 nM; in assay [3], 500 to 3000 nM; in assay [4], 100 to 499 nM.
Take `Cn1cc(-c2ccc3scc(-c4ccns4)c3n2)cn1` [Preparative Example 67, 3-(isothiazol-5-yl)-5-(1-methyl-1H-pyrazol-4-yl)thieno[3,2-b]pyridine]: the IC50 in assay [1] lay within 20 to 99 nM; in assay [2], 20 to 99 nM; in assay [3], 20 to 99 nM; in assay [4], 100 to 499 nM.
With `Cn1cc(-c2ccc3scc(-c4cncs4)c3n2)cn1` [Preparative Example 69, 5-(1-methyl-1H-pyrazol-4-yl)-3-(thiazol-5-yl)thieno[3,2-b]pyridine], the IC50 in assay [1] lay within 20 to 99 nM; in assay [2], 100 to 499 nM; in assay [3], 100 to 499 nM; in assay [4], 100 to 499 nM.
In the case of `Cc1nsc(-c2csc3ccc(-c4cnn(C)c4)nc23)n1` [Preparative Example 71, 3-(3-methyl-1,2,4-thiadiazol-5-yl)-5-(1-methyl-1H-pyrazol-4-yl)thieno[3,2-b]pyridine], the half-inhibitory concentration (IC50) in assay [1], in assay [2], in assay [3] and in assay [4] was 100 to 499 nM in each case.
As to `Cn1cc(-c2ccc3scc(C(=O)c4ccccc4)c3n2)cn1` [Preparative Example 73, (5-(1-methyl-1H-pyrazol-4-yl)thieno[3,2-b]pyridin-3-yl)(phenyl)-methanone], the IC50 in assay [1], in assay [2], in assay [3] and in assay [4] was 3000 to 10000 nM throughout.
For `Cn1cc(-c2ccc3scc(C(O)c4ccccc4)c3n2)cn1` (stereo not shown) [Preparative Example 74], the half-maximal inhibitory concentration (IC50) lay in the range of 100 to 499 nM in assay [1], 100 to 499 nM in assay [2], 500 to 3000 nM in assay [3] and 3000 to 10000 nM in assay [4].
As to `Cn1cc(-c2ccc3scc(Nc4ccccc4)c3n2)cn1` [Preparative Example 76, 5-(1-methyl-1H-pyrazol-4-yl)-N-phenylthieno[3,2-b]pyridin-3-amine], the IC50 is 20 to 99 nM in assay [1], 20 to 99 nM in assay [2], 100 to 499 nM in assay [3] and 100 to 499 nM in assay [4].
`CCn1cc(-c2ccc3scc(-c4ccncc4)c3n2)cn1` [Preparative Example 77, 5-(1-ethyl-1H-pyrazol-4-yl)-3-(pyridin-4-yl)thieno[3,2-b]pyridine]: the IC50 in assay [1], in assay [2], in assay [3] and in assay [4] was 500 to 3000 nM each time.
For `FC(F)(F)n1cc(-c2ccc3scc(-c4ccncc4)c3n2)cn1` [Preparative Example 78, 3-(pyridin-4-yl)-5-(1-(trifluoromethyl)-1H-pyrazol-4-yl)thieno[3,2-b]pyridine], the IC50 is 3000 to 10000 nM in assay [1], 500 to 3000 nM in assay [2], 3000 to 10000 nM in assay [3] and 3000 to 10000 nM in assay [4].
`CC(C)n1cc(-c2ccc3scc(-c4ccncc4)c3n2)cn1` [Preparative Example 79, 5-(1-isopropyl-1H-pyrazol-4-yl)-3-(pyridin-4-yl)thieno[3,2-b]pyridine]: the 50% inhibitory concentration (IC50) in assay [1] is 3000 to 10000 nM; in assay [2] it was 3000 to 10000 nM; in assay [3] it was 500 to 3000 nM; in assay [4], 3000 to 10000 nM.
In the case of `c1ccc(Cn2cc(-c3ccc4scc(-c5ccncc5)c4n3)cn2)cc1` [Preparative Example 81, 5-(1-benzyl-1H-pyrazol-4-yl)-3-(pyridin-4-yl)thieno[3,2-b]pyridine], the IC50 is 500 to 3000 nM in assay [1], 500 to 3000 nM in assay [2], 3000 to 10000 nM in assay [3] and 3000 to 10000 nM in assay [4].
Regarding `Cn1ncc(-c2ccc3scc(-c4ccncc4)c3n2)c1CC1CC1` [Preparative Example 82, 5-(5-(cyclopropylmethyl)-1-methyl-1H-pyrazol-4-yl)-3-(pyridin-4-yl)thieno[3,2-b]pyridine], the IC50 was 500 to 3000 nM in assay [1], 500 to 3000 nM in assay [2], 100 to 499 nM in assay [3] and 3000 to 10000 nM in assay [4].
As for `Cn1cc(-c2ccc3scc(-c4ccncc4)c3n2)c(NC(=O)OC(C)(C)C)n1` [Preparative Example 83, tert-butyl(1-methyl-4-(3-(pyridin-4-yl)thieno[3,2-b]pyridin-5-yl)-1H-pyrazol-3-yl)carbamate], the IC50 in assay [1] lay within 500 to 3000 nM; in assay [2] it was 500 to 3000 nM; in assay [3], 500 to 3000 nM; in assay [4], 3000 to 10000 nM.
For the compound `Cn1cc(-c2ccc3scc(-c4ccncc4)c3n2)c(N)n1` [Preparative Example 84, 1-methyl-4-(3-(pyridin-4-yl)thieno[3,2-b]pyridin-5-yl)-1H-pyrazol-3-amine], the half-inhibitory concentration (IC50) was 500 to 3000 nM in assay [1], 500 to 3000 nM in assay [2], 500 to 3000 nM in assay [3] and 3000 to 10000 nM in assay [4].
For `Cc1nn(C)c(C)c1-c1ccc2scc(-c3ccncc3)c2n1` [Preparative Example 85, 3-(pyridin-4-yl)-5-(1,3,5-trimethyl-1H-pyrazol-4-yl)thieno[3,2-b]pyridine], the IC50 in assay [1] is 500 to 3000 nM; in assay [2], 500 to 3000 nM; in assay [3], 500 to 3000 nM; in assay [4] it was 3000 to 10000 nM.
For the compound `Cn1ccc(-c2ccc3scc(-c4ccncc4)c3n2)n1` [Preparative Example 86, 5-(1-methyl-1H-pyrazol-3-yl)-3-(pyridin-4-yl)thieno[3,2-b]pyridine], the IC50 in assay [1] lay in the range of 500 to 3000 nM; in assay [2] it was 500 to 3000 nM; in assay [3], 3000 to 10000 nM; in assay [4], 3000 to 10000 nM.

As usually defined, the IC50 is the concentration that gives 50% inhibition.

Source of the values: EP4483954A1 (Masarykova Univerzita, priority 2023, dated 2025).
